This is an account of results in patent US4598075A, “Cephalosporin compounds” (Tanabe Seiyaku Co., Ltd., priority 1982, dated 1986).

≈ marks a conversion by molar mass, not a printed value. Where two headings read alike, the source gives them in different places.

Data set [1] has as its system Streptococcus faecalis CN-478. The experiment in a line: MIC by standard agar plate dilution method. Format: cell-based. Conditions: Enterococcus faecalis. The text has this:
The cephalosporin compound (I) of the present invention and pharmaceutically acceptable salts thereof show potent antimicrobial activity against a wide variety of microorganisms including those belonging to the genera Streptococcus (e.g., St. faecalis, St. pneumoniae), Staphylococcus (e.g., S. aureus, S. epidermidis) and Pseudomonas (e.g., Ps. aeruginosa, Ps. putida, Ps. stutzeri), and are particularly characterized by their potent antimicrobial activity against both gram-positive and gram-negative bacteria. […] The antimicrobial activity of 7β{(Z)-2-(2-aminothiazol-4-yl)-2-[(2-pyrrolidon-3-yl)oxyimino]-acetamido}-3-[(1-methyl-1H-tetrazol-5-yl)thio-methyl]-3-cephem-4-carboxylic acid against Staphylococcus aureus 252R is also more than 16 times stronger than those of Cefmenoxime and Ceftazidime. Moreover, the compound (I) and a salt thereof show potent antimicrobial activity against bacteria belonging to the genera Bacillus (e.g., B. subtilis), Escherichia (e.g., E. coli), Klebsiella (e.g., K. pneumoniae), Enterobacter (e.g., E. aerogenes, E. cloacae) and Serratia (e.g., S. marcescens).
(§1) The minimum inhibitory concentration (MIC, μg/ml) of a test compound was determined by means of a standard agar plate dilution method (based on the standard method of Japan Society of Chemotherapy). Media used in these experiments were Mueller-Hinton agar (MHA; Nissui).

Data set [2] has as its system Staphylococcus aureus 252R. The experiment in a line: MIC by standard agar plate dilution method. Format: cell-based. The procedure:
as §1

Data set [3] relates to Citrobacter freundii 916. The experiment in a line: MIC by standard agar plate dilution method. It is filed as cell-based. Here is the method:
as §1
(§2) The results are shown in the following Table 2 together with the M. I. C. (μg/ml) of the test compound which was estimated in the same manner as described in Experiment I.

Data set [4] deals with Enterobacter aerogenes 816. The experiment in a line: MIC by standard agar plate dilution method. Format: cell-based. Here is the method: as §1, §2
Data set [5] has as its system Staphylococcus aureus Smith. The experiment in a line: MIC by standard agar plate dilution method. Format: cell-based. Conditions: read-out: M.I.C. (in parentheses). The procedure:
as §1, §2

Data set [6] deals with Escherichia coli KC-14. The experiment in a line: MIC by standard agar plate dilution method. Format: cell-based. The following applies: KC14, Table 2, read-out: M.I.C. (in parentheses). Here is the method: as §1, §2
In data set [7] the test system is Serratia marcescens 7006. The experiment in a line: MIC by standard agar plate dilution method. It is filed as cell-based. The procedure:
as §1, §2

The test system of data set [8] is Pseudomonas aeruginosa 4096. The experiment in a line: MIC by standard agar plate dilution method. Format: cell-based. Conditions: Table 1, Mueller-Hinton agar. The procedure: as §1
Data set [9] has as its system Enterobacter cloacae TU-680. The experiment in a line: MIC by standard agar plate dilution method. It is filed as cell-based. Conditions: TU680, Table 1, Mueller-Hinton agar. The procedure:
as §1

Data set [10] relates to Bacillus subtilis ATCC 6633. The experiment in a line: MIC by standard agar plate dilution method. Format: cell-based. The following applies: ATCC6633, Table 1, Mueller-Hinton agar. The procedure: as §1
Data set [11] has as its system Pseudomonas putida ATCC 12633. The experiment in a line: MIC by standard agar plate dilution method. It is filed as cell-based. The following applies: ATCC12633, Table 1, Mueller-Hinton agar. Here is the method: as §1
Data set [12] relates to Klebsiella pneumoniae 5038. The experiment in a line: MIC by standard agar plate dilution method. Conditions: Table 1, Mueller-Hinton agar. It is filed as cell-based. Here is the method: as §1
Data set [13] concerns Staphylococcus aureus Terajima. The experiment in a line: MIC by standard agar plate dilution method. It is filed as cell-based. The following applies: Table 1, Mueller-Hinton agar. Here is the method:
as §1

Data set [14] relates to Citrobacter freundii 916. The experiment in a line: Protective effects on bacterial infections in mice. Conditions: 168 h. Format: in vivo. Here is the method:
(§3) Ten male mice weighing 20±1 g were used for each dose level. Mice were challenged via the intraperitoneal route with sufficient bacteria to kill all non-treated mice within 24 hours. All bacteria were suspended in 6 % mucin. A test compound were administered intramuscularly one hour after the infection. Survival ratios were determined 7 days after the infection. The median effective doses (ED50, mg/kg) of the test compound were estimated by the probito analysis.

Data set [15] deals with Enterobacter aerogenes 816. The experiment in a line: Protective effects on bacterial infections in mice. It is filed as in vivo. The following applies: 168 h. Here is the method: as §3
Data set [16] has as its system Staphylococcus aureus Smith. The experiment in a line: Protective effects on bacterial infections in mice. It is filed as in vivo. The following applies: im, 168 h. Here is the method:
as §3

In data set [17] the test system is Escherichia coli KC-14. The experiment in a line: Protective effects on bacterial infections in mice. It is filed as in vivo. The following applies: KC14, im, 168 h, intramuscular one hour after intraperitoneal infection, survival at 7 days. The procedure: as §3
The subject of data set [18] is Serratia marcescens 7006. The experiment in a line: Protective effects on bacterial infections in mice. Conditions: 168 h. It is filed as in vivo. The procedure:
as §3

Data set [19] in a line: Subcutaneous administration to SD-male rats for 14 consecutive days. Format: in vivo. The following applies: dose of 1000 mg for 14 consecutive days. The procedure:
For example, no rats die even after 7β-{(Z)-2-(2-aminothiazol-4-yl)-2-[(2-pyrrolidon-3-yl)oxyimino]acetamido}-3-(1-pyridiniomethyl)-3-cephem-4-carboxylate (l-isomer) is administered subcutaneously to SD-male rats at a dose of 1000 mg for 14 consecutive days.

Where [20] appears, read: CN478, agar dilution method, cultured for 20 hours at 37° C., Streptococcus faecalis CN 478, read-out: minimum inhibitory concentration (M.I.C.).
Setting [21] is: CN478, Table 1, Mueller-Hinton agar, Streptococcus faecalis CN-478, read-out: M.I.C.
[22] abbreviates: Table 2, Citrobacter freundii 916, read-out: M.I.C. (in parentheses).
[23] abbreviates: Klebsiella aerogenes, Table 2, Enterobacter aerogenes 816, read-out: M.I.C. (in parentheses).
Where [24] appears, read: Table 2, Staphylococcus aureus Smith.
Setting [25] is: Table 1, Mueller-Hinton agar, Serratia marcescens 7006, read-out: M.I.C.
Setting [26] is: Table 2, Serratia marcescens 7006, read-out: M.I.C. (in parentheses).
Setting [27] is: Table 1, Mueller-Hinton agar, Staphylococcus aureus 252R, read-out: M.I.C.
Where [28] appears, read: im, Citrobacter freundii 916, intramuscular one hour after intraperitoneal infection, survival at 7 days, read-out: ED50.
[29] abbreviates: Klebsiella aerogenes, im, Enterobacter aerogenes 816, intramuscular one hour after intraperitoneal infection, survival at 7 days, read-out: ED50.
The mark [30] stands for this setting: Staphylococcus aureus Smith, intramuscular one hour after intraperitoneal infection, survival at 7 days, read-out: ED50.
[31] abbreviates: im, Serratia marcescens 7006, intramuscular one hour after intraperitoneal infection, survival at 7 days, read-out: ED50.

As for `CN1CCC(O/N=C(\C(=O)N[C@@H]2C(=O)N3C(C(=O)O)=C(CSc4nnnn4C)CS[C@H]23)c2csc(N)n2)C1=O` (stereo partly drawn) [7β-{(Z)-2-(2-aminothiazol-4-yl)-2-[(1-methyl-2-pyrrolidon-3-yl)oxyiminoacetamido}-3-[(1-methyl-1H-tetrazol-5-yl)thiomethyl]-3-cephem-4-carboxylic acid], in data set [1] (setting [20]), the MIC amounted to 25 µg/mL (≈ 42 µM).
Regarding `Cn1nnnc1SCC1=C(C(=O)O)N2C(=O)[C@@H](NC(=O)/C(=N\OC3CCNC3=O)c3csc(N)n3)[C@H]2SC1` (stereo partly drawn) [7β{(Z)-2-(2-aminothiazol-4-yl)-2-[(2-pyrrolidon-3-yl)oxyimino]-acetamido}-3-[(1-methyl-1H-tetrazol-5-yl)thio-methyl]-3-cephem-4-carboxylic acid], the “antimicrobial activity stronger than those of Cefmenoxime and Ceftazidime” value in data set [2] (Staphylococcus aureus 252R, relative to Cefmenoxime and Ceftazidime) was “more than 16 times”.
As for `CO/N=C(\C(=O)N[C@@H]1C(=O)N2C(C(=O)O)=C(CSc3nnnn3C)CS[C@H]12)c1csc(N)n1` [Cefmenoxime, 7β-[(Z)-2-(2-aminothiazol-4-yl)-2-(methoxyimino)acetamido]-3-[(1-methyl-1H-tetrazol-5-yl)thiomethyl]-3-cephem-4-carboxylic acid], the MIC in [1] (setting [21]) is more than 100 µg/mL; in data set [1] (setting [20]), more than 100 µg/mL; in data set [3] (setting [22]), 0.05 µg/mL (≈ 0.0977 µM); in data set [4] (setting [23]) it was 1.56 µg/mL (≈ 3.05 µM); in data set [5] (setting [24]) it was 1.56 µg/mL (≈ 3.05 µM); in data set [6] it was 0.025 µg/mL (≈ 0.0489 µM). For the same compound, the MIC was 0.2 µg/mL (≈ 0.391 µM) in data set [7] (setting [25]); 0.2 µg/mL (≈ 0.391 µM) in [7] (setting [26]); 6.25 µg/mL (≈ 12.2 µM) in data set [8]; 0.1 µg/mL (≈ 0.195 µM) in data set [9]; 1.56 µg/mL (≈ 3.05 µM) in data set [10]; more than 100 µg/mL in data set [2] (setting [27]). For the same compound, the MIC in [11] is 100 µg/mL (≈ 195 µM); in data set [12], 0.1 µg/mL (≈ 0.195 µM); in data set [13], 1.56 µg/mL (≈ 3.05 µM). Also, the ED50 in [14] (setting [28]) was 0.19 mg/kg; in data set [15] (setting [29]), 23.9 mg/kg; in data set [16] (setting [30]) it was 5.32 mg/kg; in [17], 0.16 mg/kg; in data set [18] (setting [31]), 0.88 mg/kg.
On to `CC(C)(O/N=C(\C(=O)N[C@@H]1C(=O)N2C(C(=O)[O-])=C(C[n+]3ccccc3)CS[C@H]12)c1csc(N)n1)C(=O)O` [Ceftazidime, 7β-[(Z)-2-(2-aminothiazol-4-yl)-2-(2-carboxyprop-2-yloxyimino)acetamido]-3-(1-pyridiniomethyl)-3-cephem-4-carboxylate], for which the MIC in data set [1] (CN478) is more than 100 µg/mL; in data set [1] (CN478, 20 h, read-out: minimum inhibitory concentration (M.I.C.)) it was more than 100 µg/mL; in data set [3] (Citrobacter freundii, 916, read-out: M.I.C. (in parentheses)) it was 0.39 µg/mL (≈ 0.714 µM); in data set [4] (Klebsiella aerogenes, 816, read-out: M.I.C. (in parentheses)) it was 6.25 µg/mL (≈ 11.4 µM); in [5] (Staphylococcus aureus), 12.5 µg/mL (≈ 22.9 µM); in [6], 0.05 µg/mL (≈ 0.0915 µM). The MIC in data set [7] (Serratia marcescens, 7006) was 0.2 µg/mL (≈ 0.366 µM); in data set [7] (Serratia marcescens, 7006, read-out: M.I.C. (in parentheses)), 0.2 µg/mL (≈ 0.366 µM); in data set [8], 0.78 µg/mL (≈ 1.43 µM); in [9], 0.2 µg/mL (≈ 0.366 µM); in [10], 3.13 µg/mL (≈ 5.73 µM); in data set [2] (Staphylococcus aureus, 252R) it was more than 100 µg/mL. Moreover, the values for the MIC in data set [11], in [12] and in data set [13] were 12.5 µg/mL (≈ 22.9 µM), 0.1 µg/mL (≈ 0.183 µM) and 12.5 µg/mL (≈ 22.9 µM), respectively. Further, the ED50 in data set [14] (Citrobacter freundii, 916, im) turned out to be 0.15 mg/kg; in data set [15] (Klebsiella aerogenes, 816, im), 26.4 mg/kg; in [16] (Staphylococcus aureus), 7.85 mg/kg; in data set [17], 0.08 mg/kg; in [18] (Serratia marcescens, 7006, im) it was 0.54 mg/kg.
Turning to `Nc1nc(/C(=N/O[C@H]2CCNC2=O)C(=O)N[C@@H]2C(=O)N3C(C(=O)[O-])=C(C[n+]4ccccc4)CS[C@H]23)cs1` [Example 6, 7β-{(Z)-2-(2-aminothiazol-4-yl)-2-[(2-pyrrolidon-3-yl)oxyimino]acetamido}-3-(1-pyridiniomethyl)-3-cephem-4-carboxylate (l-isomer)], the MIC in data set [1] (setting [21]) came out at 12.5 µg/mL (≈ 23 µM); in data set [1] (setting [20]), 12.5 µg/mL (≈ 23 µM); in [3] (setting [22]), 0.1 µg/mL (≈ 0.184 µM); in data set [4] (setting [23]), 0.39 µg/mL (≈ 0.717 µM); in data set [5] (setting [24]) it was 1.56 µg/mL (≈ 2.87 µM); in data set [6] it was 0.05 µg/mL (≈ 0.092 µM). The MIC in data set [7] (setting [25]) is not above 0.05 µg/mL; in data set [7] (setting [26]), 0.05 µg/mL (≈ 0.092 µM); in data set [8], 0.39 µg/mL (≈ 0.717 µM); in [9] it was not above 0.05 µg/mL; in data set [10] it was 0.2 µg/mL (≈ 0.368 µM); in data set [2] (setting [27]), 25 µg/mL (≈ 46 µM). The values for the MIC in [11], in data set [12] and in data set [13] were 1.56 µg/mL (≈ 2.87 µM), 0.05 µg/mL (≈ 0.092 µM) and 0.78 µg/mL (≈ 1.43 µM), respectively. Further, in data set [19], the deaths of rats entry is reported as “no rats die”. Further, the 50% effective dose (ED50) worked out at 0.06 mg/kg in [14] (setting [28]); 1.37 mg/kg in data set [15] (setting [29]); 1.71 mg/kg in data set [16] (setting [30]); 0.05 mg/kg in data set [17]; 0.14 mg/kg in [18] (setting [31]).

By ED50 is commonly meant the midpoint of the dose-response relation.
